Values quoted from earlier work, collected in patent US11452734B2, “Method of treating and preventing secondary hyperparathyroidism” (OPKO IRELAND GLOBAL HOLDINGS, LTD., priority 2006, dated 2022).

Biological target: T1, Vitamin D receptors (VDR) (Homo sapiens, UniProt P11473)
T1 sequence (P11473 1-427): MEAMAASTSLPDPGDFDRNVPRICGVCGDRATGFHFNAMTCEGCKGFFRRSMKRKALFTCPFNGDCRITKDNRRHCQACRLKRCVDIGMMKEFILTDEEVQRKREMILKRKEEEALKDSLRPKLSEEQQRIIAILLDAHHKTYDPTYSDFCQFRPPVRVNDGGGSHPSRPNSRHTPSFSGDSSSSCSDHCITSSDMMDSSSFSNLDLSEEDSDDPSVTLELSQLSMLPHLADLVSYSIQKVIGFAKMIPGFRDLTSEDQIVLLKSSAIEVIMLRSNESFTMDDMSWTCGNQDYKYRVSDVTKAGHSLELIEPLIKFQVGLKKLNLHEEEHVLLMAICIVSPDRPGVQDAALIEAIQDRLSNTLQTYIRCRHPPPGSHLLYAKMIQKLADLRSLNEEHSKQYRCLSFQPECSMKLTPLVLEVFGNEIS

For C=C1/C(=C\C=C2/CCC[C@]3(C)[C@@H]([C@H](C)/C=C/[C@H](C)C(C)(C)O)CC[C@@H]23)C[C@@H](O)C[C@@H]1O [1α,25-dihydroxyvitamin D2], the “affinities for the VDR, compared among the three Vitamin D hormones” value is given as “nearly identical”.

In the case of C=C1/C(=C\C=C2/CCC[C@]3(C)[C@@H]([C@H](C)/C=C/[C@@](C)(O)C(C)C)CC[C@@H]23)C[C@@H](O)C[C@@H]1O [1α,24(S)-dihydroxyvitamin D2], the “affinities for the VDR, compared among the three Vitamin D hormones” value is listed as “nearly identical”.
